Laboratory results: the supplement of paper PMC10307832

Tests used:
Test in all cases: relative viability (nuclei count vs DMSO), 5 days (fraction); higher = more cells survive
[1] = compound: C1CSC2=C(C(=O)N1)SC3=C2C=C(C=C3)O [kb NB 142-70] + N=C(N)NC(=N)NCCc1ccccc1 [Phenformin] (partner 250 µM)
Outline: (§1)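 Relative viability equals treated-well nuclei counts divided by vehicle-well nuclei counts. Counts came from 4× images of lung cancer cell lines grown in 1536-well plates for 5 days after pin-tool dosing on the day after seeding. Dosing used one drug alone or a fixed anchor-drug dose plus five library-drug doses (not always all listed) in √10 steps, and values are medians of duplicate plates.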

[2] = compound: NCC(=O)Nc1ccc(-n2nc(C(F)(F)F)cc2-c2ccc3c(ccc4ccccc43)c2)cc1 + CC(=O)Nc1cccc(-n2c(=O)n(C3CC3)c(=O)c3c(Nc4ccc(I)cc4F)n(C)c(=O)c(C)c32)c1 [Trametinib] (partner 0.02 µM)
Outline: as §1

[3] = compound: NCC(=O)Nc1ccc(-n2nc(C(F)(F)F)cc2-c2ccc3c(ccc4ccccc43)c2)cc1 + COc1cccc2cc(-c3nc([C@H]4CC[C@H](C(=O)O)CC4)n4ncnc(N)c34)[nH]c12 [OSI-027] (partner 0.5 µM)
Outline: as §1

[4] = compound: C1CSC2=C(C(=O)N1)SC3=C2C=C(C=C3)O [kb NB 142-70] + Nc1ncn([C@H]2C[C@H](O)[C@@H](CO)O2)c(=O)n1 [Decitabine] (partner 2 µM)
Outline: as §1

Cell Line | relative viability ([1]; first compound 0.1 µM) | relative viability ([1]; first compound 1 µM) | relative viability ([1]; first compound 3.162 µM) | relative viability ([2]; first compound 0.02 µM) | relative viability ([2]; first compound 0.06325 µM) | relative viability ([2]; first compound 0.2 µM) | relative viability ([2]; first compound 0.6325 µM) | relative viability ([2]; first compound 2 µM) | relative viability ([3]; first compound 0.02 µM) | relative viability ([3]; first compound 0.06325 µM) | relative viability ([3]; first compound 0.2 µM) | relative viability ([3]; first compound 0.6325 µM) | relative viability ([3]; first compound 2 µM) | relative viability ([4]; first compound 0.1 µM) | relative viability ([4]; first compound 1 µM) | relative viability ([4]; first compound 3.162 µM)
LK-2 | 0.5 | 0.403 | 0.318 | 0.659 | 0.751 | 0.703 | 0.826 | 0.686 | 0.182 | 0.207 | 0.21 | 0.246 | 0.174 | 0.37 | 0.282 | 0.195
NCI-H2126 | 0.525 | 0.507 | 0.551 | 0.586 | 0.599 | 0.626 | 0.553 | 0.54 | 0.773 | 0.753 | 0.726 | 0.741 | 0.631 | 0.555 | 0.616 | 0.571
NCI-H3122 | 0.412 | 0.396 | 0.347 | 0.204 | 0.245 | 0.188 | 0.232 | 0.261 | 1.04 | 0.941 | 0.899 | 0.98 | 0.876 | 0.487 | 0.371 | 0.419
NCI-H1975 | 0.394 | 0.366 | 0.235 | 0.399 | 0.39 | 0.405 | 0.32 | 0.284 | 0.676 | 0.811 | 0.772 | 0.834 | 0.752 | 0.431 | 0.388 | 0.295
NCI-H1944 | 0.202 | 0.205 | 0.2 | 0.429 | 0.408 | 0.437 | 0.413 | 0.403 | 0.37 | 0.442 | 0.427 | 0.423 | 0.47 | 0.451 | 0.458 | 0.473
LU99A | 0.789 | 0.666 | 0.722 | 0.548 | 0.678 | 0.569 | 0.56 | 0.48 | 0.285 | 0.29 | 0.303 | 0.272 | 0.295 | 1.09 | 0.9 | 0.708
SW 1573 | 0.378 | 0.264 | 0.175 | 0.551 | 0.436 | 0.637 | 0.565 | 0.476 | 0.593 | 0.658 | 0.759 | 0.487 | 0.551 | 0.526 | 0.378 | 0.26
NCI-H2347 | 0.412 | 0.349 | 0.381 | 0.311 | 0.285 | 0.297 | 0.268 | 0.357 | 0.465 | 0.484 | 0.606 | 0.503 | 0.685 | 0.651 | 0.613 | 0.58
NCI-H2009 | 0.477 | 0.547 | 0.429 | 0.265 | 0.35 | 0.316 | 0.275 | 0.301 | 0.573 | 0.613 | 0.703 | 0.604 | 0.609 | 0.371 | 0.38 | 0.375
HCC-15 | 0.476 | 0.491 | 0.518 | 0.386 | 0.416 | 0.447 | 0.369 | 0.363 | 0.675 | 0.679 | 0.689 | 0.658 | 0.697 | 0.618 | 0.694 | 0.553
HCC-44 | 0.405 | 0.256 | 0.148 | 0.792 | 1.1 | 1.05 | 1.11 | 1.02 | 0.461 | 0.743 | 0.592 | 0.651 | 0.497 | 0.946 | 0.993 | 1.01
COR-L23 | 0.416 | 0.426 | 0.258 | 0.593 | 0.637 | 0.568 | 0.549 | 0.491 | 0.765 | 0.894 | 0.836 | 0.693 | 0.755 | 0.409 | 0.465 | 0.246
HCC-78 | 0.72 | 0.673 | 0.651 | 0.755 | 0.807 | 0.804 | 0.788 | 0.705 | 0.402 | 0.375 | 0.329 | 0.347 | 0.41 | 0.683 | 0.727 | 0.677
NCI-H727 | 0.585 | 0.714 | 0.605 | 0.411 | 0.372 | 0.351 | 0.346 | 0.394 | 0.533 | 0.504 | 0.579 | 0.694 | 0.737 | 0.915 | 0.868 | 0.768
NCI-H2087 | 0.432 | 0.555 | 0.411 | 0.155 | 0.209 | 0.214 | 0.181 | 0.185 | 0.543 | 0.612 | 0.546 | 0.483 | 0.626 | 0.277 | 0.245 | 0.189
BEN | 0.25 | 0.263 | 0.239 | 0.861 | 1.15 | 1.05 | 0.938 | 1.11 | 0.281 | 0.32 | 0.296 | 0.326 | 0.297 | 0.776 | 0.741 | 0.588
LCLC-103H | 0.352 | 0.317 | 0.318 | 0.67 | 0.688 | 0.694 | 0.67 | 0.618 | 0.412 | 0.43 | 0.443 | 0.575 | 0.429 | 0.75 | 0.737 | 0.773
EKVX | 0.24 | 0.238 | 0.244 | 0.408 | 0.356 | 0.428 | 0.366 | 0.369 | 0.729 | 0.646 | 0.673 | 0.674 | 0.737 | 0.369 | 0.311 | 0.364
LXF-289 | 0.526 | 0.526 | 0.457 | 0.716 | 0.705 | 0.67 | 0.672 | 0.68 | 0.67 | 0.801 | 0.787 | 0.819 | 0.713 | 0.392 | 0.369 | 0.365
NCI-H650 | 0.462 | 0.465 | 0.429 | 0.991 | 1.03 | 1.01 | 0.948 | 0.994 | 0.508 | 0.524 | 0.541 | 0.443 | 0.524 | 0.309 | 0.283 | 0.267
